{
  "source": "patent US20260327274A1",
  "about": "“PROTEIN HYDROLYSATES OF AZUKI BEANS AND COSMETIC USES THEREOF” (LUBRIZOL ADVANCED MATERIALS, INC., priority 2022, published 2026)",
  "key": {"Caucasian hair shafts": {"system": "Caucasian hair shafts", "assay": "Ex vivo protection evaluation in Caucasian hair shafts (protein carbonylation)", "parameters": "species or system human", "conditions": "positive control NAC, concentration not given; stress (PM + UV-A); basal control 100, stress 214", "source_text": "Carbonylated proteins in hair shafts or HFDPC are labeled in situ using a fluorescent probe functionalized to specifically bind carbonyl groups in proteins [Baraibar, M A, et al., “Proteomic quantification and identification of carbonylated proteins upon oxidative stress and during cellular aging” J. Proteomics (2013) 30; 92:63-70]. Specific fluorescent signals (relative fluorescent units) per experimental group (n=6) are collected and analyzed with ImageJ™ software. A relative value (%) of Carbonylation Level per experimental group is obtained with respect to basal control.\nhair shafts (donor; light brown) are treated with hydrolysate of Example 3 at 1% (v/v) (active ingredient solubilized in ultra-pure water, leave on (no washing steps)) for 30 minutes with gently movement at room temperature. After this time, hair shafts are dried at room temperature and are stressed with Particle Matters at 150 μg/cm^2 (from European Reference Material; Ref. CZ100) followed by UV-A irradiation (LED source, emission peak at 365 nm, 84 J/cm^2) for 6 h.\nAfter stress exposure Proteins Carbonylation is determined as described in Example 5."}, "[1]": {"assay": "DPPH assay of antioxidant activity in combination with preservatives, initial and after 3 months storage", "format": "biochemical", "conditions": "0.5% (w/w) Sodium Benzoate alone", "description": "(§1) Twelve different batches of purified hydrolysate obtained as described from Examples 1 to 3 are analyzed to determine the dry weight, protein content and antioxidant activity. • Dry weight is determined by weight difference after drying at 110° C. • Protein content is determined by using a BCA Assay kit. • Antioxidant activity is determined by DPPH (2,2-Diphenyl-1-Picrylhydrazyl) assay. • Briefly, 50 μL of 100 µM DPPH in EtOH is mixed with 50 μL of purified hydrolysate and incubated in the dark at 37° C. for 20 min and absorbance measured at 517 nm.\nThe inhibition percentage is calculated from the following formula: […]\nSuitable preservative [1% (w/w) Dermosoft™ 700B (INCI: Levulinic Acid (and) Sodium Levulinate (and) Glycerin (and) Aqua), 4% (w/w) Leucidal™ SF Max from Active Micro Technologies (AMT) (INCI: Lactobacillus Ferment) or 4% (w/w) Leucidal™ Liquid (INCI: Leuconostoc/Radish Root Ferment Filtrate)] is added onto deionized water under continuous stirring. Purified hydrolysate according to Example 3 is added on top of this solution to obtain a concentration of 44-88% (v/v), depending on sample dry weight. […] Samples are maintained for 3 months at 40° C. or at room temperature and antioxidant activity determined by DPPH assay."}, "[2]": {"assay": "DPPH inhibition by synthesized peptides identified in the hydrolysate", "format": "biochemical", "conditions": "for DPPH inhibition (%): synthesized peptide, test concentration not given; for Ability to inhibit DPPH / antioxidant potential (in words): synthesized peptides, F′2 subfraction", "description": "as §1\nThe purified extract according to Example 3 is further fractionated by using semi-preparative high-performance liquid chromatography (HPLC) and antioxidant activity assayed by DPPH for identifying the active fraction or peptides.\nCollected tubes are analyzed by analytical HPLC at 3.0 mg/ml using a Cortecs C18+column (4.6×50 mm; 2.7 μm; Waters®) at a flow of 1.6 ml/min using the following gradient composition: isocratic of 0% B in 2 min, 0 to 30% of B in 5 min, and 30 to 75% of B in 5 min, monitoring absorbance of eluting peaks at 220 nm. Different fractions are obtained from the purified hydrolysate and lyophilized for further analysis and separation. Fractions are reconstituted in water and their antioxidant activity is determined by measuring the percentage of DPPH inhibition using the methodology described above.\nTo identify peptide sequences, the Proteome Discoverer 1.4.0.288 program (Thermo) with MASCOT 2.5 is used. The identified peptides are individually synthesized by applying standard solid phase peptide synthesis, using Fmoc/tBu chemistry protocols. As starting resin, CTC-PS or HO-Trt-Chem Matrix® resin is used. In the latter case, initial resin chlorination took place by overnight reaction with […] in dry THF. The first amino acid is introduced as a solution in DMF in presence of DIEA as base, followed by capping of the resin with MeOH. The resin is washed with DMF, prior to removal of Fmoc group by treatment with a 20% solution of piperidine in DMF, followed by washings in the same solvent. Subsequent residues are incorporated in DMF employing DIPCDI and Oxyma as coupling reagents. After verification of reaction completion using ninhydrin test, the solvent is filtrated away by suction. After this, the resin is washed with DMF and the Fmoc-deprotection step is repeated as abovementioned or in 2% DBU in DMF. Coupling-deprotection cycles are repeated for introduction of the remaining amino acids, with increasing Fmoc removal treatment times from the 6th residue. Oxyma (0.5M) is introduced in the cocktail whenever Asp residue is already incorporated into the growing peptide chain.\nThe peptidyl resin is washed and dried using DMF, DCM and diethyl ether and finally left under vacuum overnight to get rid of solvent traces. Cleavage of the crude product from the solid support and removal of the side-chain protecting groups is achieved by acidolysis using TFA and 5% water as scavenger. The peptide is precipitated out of the acidic mixture with Et2O, followed by washes with the same solvent and drying under reduced pressure. Crude trifluoroacetate salt peptide is lyophilized and analyzed by analytical HPLC-MS, affording peptide purities over 80%.\nSynthesized peptides are further evaluated for its capacity to inhibit DPPH as a reference for their antioxidant potential. […] ID."}},
  "note": "Ends that are not written are not given here.",
  "data": [
    {"compound": "CC(=O)N[C@@H](CS)C(=O)O", "note": "[NAC, N-acetyl-cysteine]", "values": [
      {"measurement": "Carbonylation level % (MEAN ± SEM)", "setting": "Caucasian hair shafts", "value": "166.8 ± 5.41", "unit": "%"}
    ]},
    {"compound": "O=C(O)c1ccccc1", "note": "[Sodium Benzoate]", "values": [
      {"measurement": "% DPPH INHIBITION, t = 0", "setting": "[1]", "value": 0, "unit": "%"}
    ]},
    {"compound": "EYTGDAAGR [SEQ ID No. 5]", "values": [
      {"measurement": "DPPH inhibition (%)", "setting": "[2]", "value": 83.9, "unit": "%"},
      {"measurement": "Ability to inhibit DPPH / antioxidant potential (in words)", "setting": "[2]", "value": "most antioxidant peptides"}
    ]},
    {"compound": "GINAENNQRN [SEQ ID No. 4]", "values": [
      {"measurement": "DPPH inhibition (%)", "setting": "[2]", "value": 96.3, "unit": "%"},
      {"measurement": "Ability to inhibit DPPH / antioxidant potential (in words)", "setting": "[2]", "value": "most antioxidant peptides"}
    ]},
    {"compound": "LPQQEQGHDR [SEQ ID No. 2]", "values": [
      {"measurement": "DPPH inhibition (%)", "setting": "[2]", "value": 77.5, "unit": "%"},
      {"measurement": "Ability to inhibit DPPH / antioxidant potential (in words)", "setting": "[2]", "value": "most antioxidant peptides"}
    ]},
    {"compound": "VAEQEQEQAKRQ [SEQ ID No. 1]", "values": [
      {"measurement": "DPPH inhibition (%)", "setting": "[2]", "value": 78.7, "unit": "%"},
      {"measurement": "Ability to inhibit DPPH / antioxidant potential (in words)", "setting": "[2]", "value": "most antioxidant peptides"}
    ]},
    {"compound": "VDAQPEEQQR [SEQ ID No. 3]", "values": [
      {"measurement": "DPPH inhibition (%)", "setting": "[2]", "value": 100, "unit": "%"},
      {"measurement": "Ability to inhibit DPPH / antioxidant potential (in words)", "setting": "[2]", "value": "most antioxidant peptides"}
    ]}
  ]
}
